Among the data in US4383113A, “Agricultural sulfonamides” (E. I. Du Pont de Nemours and Company, priority 1981, dated 1983) are response rating values, retold here.

Holding throughout (test): Test A pre-emergence
One experiment concerns morningglory. Type of experiment: in vivo, Ipomoea spp. Further details: key: 0 = no effect, 10 = maximum effect; letter = response symbol. A digest of the protocol:
(§1)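 Seeds and tubers were treated preemergence in a growth medium with compound in a nonphytotoxic solvent, against untreated controls; emerged plants such as two-leaf barnyardgrass and five-leaf cotton were sprayed postemergence, against solvent-sprayed controls. After sixteen days in a greenhouse, response was rated visually from 0 to 10.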

Another experiment has as its system cocklebur. Type of experiment: in vivo, Xanthium spp. Further details: key: 0 = no effect, 10 = maximum effect; letter = response symbol. A digest of the protocol: as §1
The next experiment relates to cassia. Type of experiment: in vivo, Cassia tora. On the set-up: key: 0 = no effect, 10 = maximum effect; letter = response symbol. The settings on record: 0.4 kg/ha. The procedure, abridged:
as §1

The test system of the next experiment is nutsedge. The experiment is classed as in vivo, Cyperus rotundus. The text has this:
(§2) The activity of these compounds was discovered in a number of greenhouse and field tests. The ratings are based on a numerical scale extending from 0=no effect, to 10=maximum effect. The accompanying descriptive symbols have the following meanings:
(§3) Seeds of crabgrass (Digitaria spp.), barnyardgrass (Echinochloa crusgalli), wild oats (Avena fatua), cassia (Cassia tora), morningglory (Ipomoea spp.), cocklebur (Xanthium spp.), sorghum, corn, soybean, rice, wheat and nutsedge tubers (Cyperus rotundus) were planted in a growth medium and treated preemergence with a nonphytotoxic solvent solution of the compounds of Table XII. Other batches of seeds and tubers for all of the foregoing weed and crop plants were planted at the same time as controls. The control plantings were untreated; i.e., neither any compound nor any solvent was applied. At the same time, cotton having five leaves (including cotyledonary ones), bush beans with the third trifoliate leaf expanding, crabgrass with two leaves, barnyardgrass with two leaves, wild oats with two leaves, cassia with three leaves (including cotyledonary ones), morningglory with four leaves (including the cotyledonary ones), cocklebur with four leaves (including the cotyledonary ones), sorghum with four leaves, corn with four leaves, soybean with two cotyledonary leaves, rice with three leaves, wheat with one leaf, and nutsedge with three-five leaves were sprayed with a nonphytotoxic solvent solution of the compounds of Table XII. Other groups of all the same weed and crop plants were sprayed with the same nonphytotoxic solvent so as to provide control plants. Preemergence and postemergence treated plants and controls were maintained in a greenhouse for sixteen days, then all treated plants were compared with their respective controls and rated visually for response to treatment.

In another experiment the test system is crabgrass. Type of experiment: in vivo, Digitaria spp. Further details: key: 0 = no effect, 10 = maximum effect; letter = response symbol.
Description: as §2, §3

A further experiment has as its system barnyardgrass. The experiment is classed as in vivo, Echinochloa crusgalli. Further details: key: 0 = no effect, 10 = maximum effect; letter = response symbol. Conditions: 0.4 kg/ha. A digest of the protocol: as §1
For a further experiment, the system named is wild oats. The experiment is classed as in vivo, Avena fatua. On the set-up: key: 0 = no effect, 10 = maximum effect; letter = response symbol. Conditions: 0.4 kg/ha.
Description: as §2, §3

The next experiment deals with corn. Type of experiment: in vivo. On the set-up: key: 0 = no effect, 10 = maximum effect; letter = response symbol. The procedure, abridged: as §1
The subject of a further experiment is sorghum. Type of experiment: in vivo. Further details: key: 0 = no effect, 10 = maximum effect; letter = response symbol. The procedure, abridged:
as §1

The test system of the next experiment is soybean. The experiment is classed as in vivo. On the set-up: key: 0 = no effect, 10 = maximum effect; letter = response symbol. A digest of the protocol:
as §1

For a further experiment, the system named is wheat. The experiment is classed as in vivo. Further details: key: 0 = no effect, 10 = maximum effect; letter = response symbol. The settings on record: 0.4 kg/ha. A digest of the protocol:
as §1

For a further experiment, the system named is rice. Type of experiment: in vivo. On the set-up: key: 0 = no effect, 10 = maximum effect; letter = response symbol. The settings on record: 0.4 kg/ha. The procedure, abridged:
as §1

As for `COC(=O)c1ccccc1S(=O)(=O)NC(=O)Nc1nc(OC)nc(OC)n1` [drawing 483], the response rating in the experiment on morningglory (0.4 kg/ha) is given as 9G; in the experiment with cocklebur (0.4 kg/ha), 9G; in the experiment on cassia it was 9G; in the experiment on nutsedge (0.4 kg/ha), 9G; in the experiment on crabgrass (0.4 kg/ha), 9H; in the experiment on barnyardgrass, 9H. In addition, the response rating with wild oats is on record as 9G; in the experiment on corn (0.4 kg/ha), 9G; with sorghum (0.4 kg/ha), 9G; with soybean (0.4 kg/ha) it was 9H; in the experiment with wheat, 9G.

In the case of `CCCCCCOC(=O)c1ccccc1S(=O)(=O)NC(=O)Nc1nc(C)cc(COC)n1` [drawing 538], the response rating is listed as 0 in the experiment with morningglory (0.4 kg/ha); 0 with cocklebur (0.4 kg/ha); 0 in the experiment on cassia; 0 in the experiment with crabgrass (0.4 kg/ha); 2G with barnyardgrass; 0 in the experiment with wild oats. Also, the response rating in the experiment with rice came to 8H; in the experiment with sorghum (0.4 kg/ha), 3G; with soybean (0.4 kg/ha) it was 0; in the experiment on wheat, 0.

`COC(=O)c1cc(Cl)c(Cl)cc1S(=O)(=O)NC(=O)Nc1nc(C)cc(OC)n1` [drawing 519]: the response rating came out at 8G in the experiment on morningglory (0.4 kg/ha); 8G in the experiment with cocklebur (0.4 kg/ha); 0 in the experiment with cassia; 2G in the experiment on crabgrass (0.4 kg/ha); 9G in the experiment on barnyardgrass; 4G in the experiment on wild oats. For the same compound, the response rating in the experiment on rice turned out to be 9H; in the experiment with wheat it was 5G.

Consider `COc1nc(C)nc(NC(=O)NS(=O)(=O)c2ccccc2C(=O)Oc2ccccc2C)n1`, for which the response rating in the experiment with morningglory (0.4 kg/ha) is on record as 9G; in the experiment with cocklebur (0.4 kg/ha) it was 9G; in the experiment with cassia it was 9G; with nutsedge (0.4 kg/ha) it was 8G; in the experiment on barnyardgrass, 9H; in the experiment on soybean (0.4 kg/ha) it was 9H.

Regarding `COC(=O)c1cc(F)ccc1S(=O)(=O)NC(=O)Nc1nc(C)nc(OC)n1` [drawing 517], the response rating in the experiment on morningglory (0.4 kg/ha) worked out at 9G; in the experiment on cassia, 9G; in the experiment on crabgrass (0.4 kg/ha), 5G; in the experiment on wild oats it was 2G; in the experiment on rice, 9H; with sorghum (0.4 kg/ha) it was 9G. Further, the response rating turned out to be 9H in the experiment with soybean (0.4 kg/ha) and 0 in the experiment on wheat.

As to `COc1nc(C)nc(NC(=O)NS(=O)(=O)c2ccccc2C(=O)OC(C)CCl)n1` (stereo not shown) [drawing 526], the response rating in the experiment with morningglory (0.4 kg/ha) was 9G; in the experiment on cocklebur (0.4 kg/ha) it was 9G; with cassia it was 8G; in the experiment on corn (0.4 kg/ha), 9G; in the experiment with rice, 9H; in the experiment with sorghum (0.4 kg/ha), 9H. The response rating in the experiment on soybean (0.4 kg/ha) is 9H; in the experiment on wheat, 4G.

Take `CCCCCCCCCCOC(=O)c1ccccc1S(=O)(=O)NC(=O)Nc1nc(C)cc(OC)n1` [drawing 495]: the response rating was 8G in the experiment with morningglory (0.4 kg/ha); 9G in the experiment with cocklebur (0.4 kg/ha); 7G in the experiment on cassia; 7G with nutsedge (0.4 kg/ha); 0 in the experiment on crabgrass (0.4 kg/ha); 9H with rice. The response rating in the experiment with wheat is 8G.

On to `Cc1cc(C)nc(NC(=O)NS(=O)(=O)c2ccccc2C(=O)O)n1` [drawing 511], for which the response rating in the experiment on morningglory (10 kg/ha) came out at 7G; in the experiment with cocklebur (10 kg/ha), 9G; in the experiment with nutsedge (10 kg/ha), 9G; in the experiment with crabgrass (10 kg/ha), 1C; in the experiment on corn (10 kg/ha), 8; in the experiment on sorghum (10 kg/ha), 5G. In the experiment with soybean (10 kg/ha), the response rating is listed as 4G.

As to `COc1nc(C)nc(NC(=O)NS(=O)(=O)c2ccccc2C(=O)OCc2ccc(Cl)cc2)n1` [drawing 527], the response rating in the experiment with morningglory (0.4 kg/ha) was determined as 9G; in the experiment with cocklebur (0.4 kg/ha) it was 8G; with cassia it was 8G; with nutsedge (0.4 kg/ha), 9G; in the experiment on wild oats, 4G; in the experiment with rice it was 9H. The response rating in the experiment with soybean (0.4 kg/ha) is on record as 7H; in the experiment on wheat, 0.

On to `C=CCCC(C)OC(=O)c1ccccc1S(=O)(=O)NC(=O)Nc1nc(C)nc(OC)n1` (stereo not shown) [drawing 522], for which the response rating in the experiment on morningglory (0.4 kg/ha) was determined as 9G; in the experiment on cocklebur (0.4 kg/ha), 9G; in the experiment on cassia, 9G; in the experiment on nutsedge (0.4 kg/ha), 9G; with sorghum (0.4 kg/ha), 9H; with soybean (0.4 kg/ha) it was 9H. The response rating in the experiment with wheat came to 7G.

For the compound `CCCCCCCCCCCCNC(=O)c1ccccc1S(=O)(=O)NC(=O)Nc1nc(C)nc(OC)n1` [drawing 534], the response rating in the experiment with morningglory (0.4 kg/ha) is reported as 9G; in the experiment on cocklebur (0.4 kg/ha), 8G; in the experiment with cassia it was 8G; in the experiment with barnyardgrass it was 9H; with wild oats, 6G; in the experiment on corn (0.4 kg/ha), 8G. Besides, the figures for the response rating with rice and with wheat were 9H and 6G, respectively.

`CCCCCCCCCCOC(=O)c1ccccc1S(=O)(=O)NC(=O)Nc1nc(OC)cc(OC)n1` [drawing 494]: the response rating in the experiment on morningglory (0.4 kg/ha) was 5G; with cocklebur (0.4 kg/ha), 9G; in the experiment with cassia, 5G; in the experiment with nutsedge (0.4 kg/ha), 5G; in the experiment on crabgrass (0.4 kg/ha), 0; with wild oats, 6G. The response rating in the experiment on rice is recorded as 8G; with sorghum (0.4 kg/ha), 8G; in the experiment on soybean (0.4 kg/ha) it was 3G; with wheat, 2G.

With `COc1cc(C)nc(NC(=O)NS(=O)(=O)c2ccccc2C(=O)CCC(C)C)n1` [drawing 516], the response rating was 9G with morningglory (0.4 kg/ha); 9G in the experiment on cocklebur (0.4 kg/ha); 9G in the experiment with cassia; 9G in the experiment with nutsedge (0.4 kg/ha); 9G with corn (0.4 kg/ha); 9H in the experiment with sorghum (0.4 kg/ha). The values for the response rating in the experiment on soybean (0.4 kg/ha) and in the experiment with wheat were 8H and 9G, respectively.

As for `COc1nc(C)nc(NC(=O)NS(=O)(=O)c2ccccc2C(=O)OCCCl)n1` [drawing 493], the response rating in the experiment with morningglory (0.4 kg/ha) is 9C; in the experiment on cocklebur (0.4 kg/ha), 9G; in the experiment on nutsedge (0.4 kg/ha) it was 9G; in the experiment with wild oats it was 8H; with rice, 9H; with soybean (0.4 kg/ha), 9H.

On to `CCOCCOC(=O)c1ccccc1S(=O)(=O)NC(=O)Nc1nc(Cl)cc(Cl)n1` [drawing 520], for which the response rating in the experiment with morningglory (0.4 kg/ha) is 3G; in the experiment on cassia, 0; in the experiment with crabgrass (0.4 kg/ha) it was 2G; with wild oats, 0; with corn (0.4 kg/ha), 1C; in the experiment on rice it was 8H. For the same compound, the response rating is on record as 8G in the experiment on sorghum (0.4 kg/ha), 0 in the experiment with soybean (0.4 kg/ha) and 0 with wheat.

In the case of `COc1nc(C)nc(NC(=O)NS(=O)(=O)c2ccccc2C(=O)OC2CCCCCCC2)n1` [drawing 523], the response rating amounted to 9G in the experiment with cocklebur (0.4 kg/ha); 8G in the experiment on cassia; 7G in the experiment with nutsedge (0.4 kg/ha); 5G in the experiment with crabgrass (0.4 kg/ha); 9H with barnyardgrass; 7G in the experiment on wild oats. Besides, the response rating with rice is on record as 9H; in the experiment on soybean (0.4 kg/ha) it was 9H; in the experiment on wheat, 5G.

Regarding `COc1nc(NC(=O)NS(=O)(=O)c2ccccc2C(=O)OCCCl)nc(OC)n1` [drawing 489], the response rating is given as 9C in the experiment on morningglory (0.4 kg/ha); 9G in the experiment with cocklebur (0.4 kg/ha); 4G with crabgrass (0.4 kg/ha); 8G in the experiment with wild oats; 9G in the experiment with corn (0.4 kg/ha); 9H in the experiment on rice. The response rating in the experiment with sorghum (0.4 kg/ha) was found to be 9G; with soybean (0.4 kg/ha), 9H; with wheat, 5G.
